From patent US5691340A, “Benzopyran derivatives” (Adir et Compagnie, priority 1994, dated 1997)

How the values were obtained:
[1] = target: σ receptor; test: In vitro binding to σ receptors ([3H]-DTG or [3H]-3-PPP); design: species or system calf; conditions: [3H]-DTG
Method: (§1) The products are tested on each receptor at 5 different concentrations (10^-5 M, 10^-6 M, 10^-7 M, 10^-8 M and 10^-9 M) in triplicate. When the binding coefficient IC50 (concentration of product which displaces 50% of the radioligand) is less than a concentration of 10^-6 M, the Ki is measured by using 12 concentrations of the product.
(§2) The receptors for which the affinity of the compounds of the invention was determined, the tissue chosen, the concentration used for determining the non-specific fraction and the radioligand used to label the receptor are shown in Table A.
10^-6 M Calf hippocampus

[2] = test system: hypermotility induced by amphetamine; test: Antagonism of hypermotility induced by amphetamine; assay type: in vivo, NMRI-CERJ mice; conditions: 64 mg/kg, IP, mice; d-amphetamine 4 mg.kg^-1 IP
Method: This test was developed by Costall B., et al. (Brain Research, 1977, 123, 89-111).
Groups of 10 NMRI-CERJ mice are injected intraperitoneally (IP) with 4 mg.kg^-1 of d-amphetamine immediately after the compound to be tested (also injected by the IP route) and the mice are placed in an activity cage for 30 minutes.
The number of interruptions of photoelectric cells is recorded, as well as the stereotypical behavior.
The activity of the tested compounds is expressed as percentage of antagonism of the hyperactivity induced by amphetamine.

[3] = test system: man; conditions: in vivo; cited from earlier work
[4] = test system: σ receptors; conditions: cited from earlier work
[5] = target: T1, σ1 receptor (Cavia porcellus, UniProt Q60492); test: In vitro binding to σ1 receptors ([3H]-Pentazocine); design: species or system guinea pig
T1 construct: Guinea pig brain; from tissue; host or cells: guinea pig brain
T1 sequence (Q60492 whole entry): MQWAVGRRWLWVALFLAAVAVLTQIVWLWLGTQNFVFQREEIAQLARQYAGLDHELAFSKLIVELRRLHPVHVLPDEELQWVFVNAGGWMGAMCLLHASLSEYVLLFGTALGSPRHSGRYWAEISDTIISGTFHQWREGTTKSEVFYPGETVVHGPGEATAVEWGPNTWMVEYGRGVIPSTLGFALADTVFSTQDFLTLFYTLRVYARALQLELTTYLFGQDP
Method: as §1, §2

[6] = target: T2, σ2 receptor (Cavia porcellus, UniProt H0V073); test: In vitro binding to σ2 receptors ([3H]-DTG); design: species or system guinea pig
T2 construct: Guinea pig brain; from tissue; host or cells: guinea pig brain
T2 sequence (H0V073 1-176): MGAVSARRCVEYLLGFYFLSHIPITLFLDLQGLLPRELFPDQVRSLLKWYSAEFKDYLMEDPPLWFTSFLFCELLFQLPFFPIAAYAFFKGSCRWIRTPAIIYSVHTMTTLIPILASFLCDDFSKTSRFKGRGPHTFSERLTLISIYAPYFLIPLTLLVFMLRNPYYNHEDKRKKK
Method: as §1, §2

[7] = test system: hyperactivity induced by N-allylnormetazocine; test: Antagonism of the hyperactivity induced by N-allylnormetazocine; assay type: in vivo; conditions: 32 mg.kg^-1, rats; N-allylnormetazocine 50 mg/kg subcutaneous
Method: This test was developed by Snyder S. H. et al. (J. Neuropsychiatry, 1989, 1,7-15).
Measurement of the hyperactivity induced by this product is therefore used as an alternative model for detecting the antipsychotic activity of the compounds which have an effect on σ receptors.
A group of 12 rats is treated with the compound to be tested before subcutaneous administration of 50 mg/kg of N-allylnormetazocine. 30 minutes later, the animals are placed in an activity cage for 30 minutes.
Haloperidol is used as reference compound.

Structure (SMILES) | IC50 [1] [nM] | percentage of antagonism of the hyperactivity induced by amphetamine [2] [%] | other results
c1ccc(CN2CCN(CC3Cc4ccccc4O3)CC2)cc1 (stereo not shown) [Example 4, 1-[(2,3-DIHYDROBENZOFUR-2-YL) METHYL]-4-BENZYLPIPERAZINE] | 7 | 61 | –
COc1ccc2c(CN3CCN(Cc4ccccc4)CC3)cc(=O)oc2c1 [Example 3, 1-[(7-METHOXY-2-OXOCHROM-3-EN-4-YL) METHYL]-4-BENZYLPIPERAZINE] | 1.3 | – | –
C=CCN1CCC2(C)c3cc(O)ccc3CC1C2C (single isomer, unassigned) [N-Allylnormetazocine] | – | – | psychotic behavior in man [3]: induces psychotic behavior in man; agonism at σ receptors [4]: prototype agonist for σ receptors
Fc1ccc2c(c1)CC(CN1CCN(Cc3ccccc3)CC1)O2 (stereo not shown) [Example 1, 1-[(5-FLUORO-2,3-DIHYDROBENZOFUR-2-YL) METHYL]-4-BENZYLPIPERAZINE] | 9.1 | 43 | –
CC(CN1CCN(Cc2ccccc2)CC1)Oc1ccccc1 (stereo not shown) [Example 9, 1-(2-PHENOXYPROPYL)-4-BENZYLPIPERAZINE] | – | – | IC50 [5]: 1.3 nM; IC50 [6]: 40 nM; antagonism of the hypermotility induced by N-allylnormetazocine [7]: 42%
